# Experimental data: patent publication US6191118A (Taisho Pharmaceutical Co., Ltd., priority 1996, dated 2001)
# Key:
# Assay type in all cases: cell-based
# S. aureus Smith = experiment: In vitro antibacterial activity (MIC), S. aureus Smith; settings: Staphylococcus aureus, sensitive disc media, Japan Society of Chemotherapy method, read-out: MIC (Minimum Inhibitory Concentration)
# Procedure: (§1) The in vitro antibacterial activity of the compound obtained in Example 4 as an example of the compound of the present invention against various experimental bacteria was measured using sensitive disc media (produced by Eiken Chemical Co.) according to the MIC measuring method specified by the Japan Society of Chemotherapy. Clarithromycin was used as a comparative drug.
# S. pneumoniae BM 205 = experiment: In vitro antibacterial activity (MIC), S. pneumoniae BM 205; settings: Streptococcus pneumoniae, BM205, sensitive disc media, Japan Society of Chemotherapy method, read-out: MIC (Minimum Inhibitory Concentration)
# Procedure: as §1
# S. aureus J-109 = experiment: In vitro antibacterial activity (MIC), S. aureus J-109; settings: Staphylococcus aureus, J109, sensitive disc media, Japan Society of Chemotherapy method, read-out: MIC (Minimum Inhibitory Concentration)
# Procedure: as §1
# S. aureus B1 = experiment: In vitro antibacterial activity (MIC), S. aureus B1; settings: Staphylococcus aureus, sensitive disc media, Japan Society of Chemotherapy method, read-out: MIC (Minimum Inhibitory Concentration)
# Procedure: as §1
# S. aureus 209P-JC = experiment: In vitro antibacterial activity (MIC), S. aureus 209P-JC; settings: Staphylococcus aureus, sensitive disc media, Japan Society of Chemotherapy method, read-out: MIC (Minimum Inhibitory Concentration)
# Procedure: as §1
# S. pneumoniae BM 210 = experiment: In vitro antibacterial activity (MIC), S. pneumoniae BM 210; settings: Streptococcus pneumoniae, BM210, sensitive disc media, Japan Society of Chemotherapy method, read-out: MIC (Minimum Inhibitory Concentration)
# Procedure: as §1
# [1] = tested on: erythromycin-resistant bacteria; experiment: Antibacterial activity against erythromycin-resistant bacteria (in words)
# Procedure: as §1
# [2] = tested on: erythromycin-sensitive bacteria; experiment: Antibacterial activity against erythromycin-sensitive bacteria (in words)
# Procedure: as §1
# S. pneumoniae IID 553 = experiment: In vitro antibacterial activity (MIC), S. pneumoniae IID 553; settings: Streptococcus pneumoniae, IID553, sensitive disc media, Japan Society of Chemotherapy method, read-out: MIC (Minimum Inhibitory Concentration)
# Procedure: as §1
Compound,MIC (S. aureus Smith) [µg/mL],MIC (S. pneumoniae BM 205) [µg/mL],MIC (S. aureus J-109) [µg/mL],MIC (S. aureus B1) [µg/mL],MIC (S. aureus 209P-JC) [µg/mL],MIC (S. pneumoniae BM 210) [µg/mL],antibacterial activity [1],antibacterial activity [2],MIC (S. pneumoniae IID 553) [µg/mL]
"CC[C@H]1OC(=O)[C@H](C)[C@@H](OC(=O)Cc2ccccn2)[C@H](C)[C@@H](O[C@@H]2O[C@H](C)C[C@H](N(C)C)[C@H]2O)[C@](C)(OC)C[C@@H](C)C(=O)[C@H](C)[C@H]2N(CCN(C)Cc3cccnc3)C(=O)O[C@]12C [Example 4, 11-{2-[N-methyl-N-(3-pyridylmethyl)amino]ethyl}amino-11-deoxy-3-O-(2-pyridyl)acetyl-5-O-desosaminyl-6-O-methylerythronolide A 11,12-cyclic carbamate]",0.2,0.39,> 100,0.39,0.1,0.39,strong antibacterial activity,strong antibacterial activity,0.1
"CC[C@H]1OC(=O)[C@H](C)[C@@H](O[C@H]2C[C@@](C)(OC)[C@@H](O)[C@H](C)O2)[C@H](C)[C@@H](O[C@@H]2O[C@H](C)C[C@H](N(C)C)[C@H]2O)[C@](C)(OC)C[C@@H](C)C(=O)[C@H](C)[C@@H](O)[C@]1(C)O [Comparative drug, Clarithromycin, reference compound]",,> 100,> 100,> 100,,1.56,,,0.1
